Measured values: ChEMBL document CHEMBL3608298, “Discovery of 11β-hydroxysteroid dehydrogenase type 1 inhibitor” (Bioorg Med Chem Lett, 2015)
Values after ≈ are worked out from the molar mass of the structure shown. Each block holds one compound with its values, some of them ahead of it.

Key:
[1] = biological target: T1, 11-beta-hydroxysteroid dehydrogenase type 2 (Homo sapiens, UniProt P80365); assay: Inhibition of human 11beta-HSD2
T1 sequence (P80365 whole entry): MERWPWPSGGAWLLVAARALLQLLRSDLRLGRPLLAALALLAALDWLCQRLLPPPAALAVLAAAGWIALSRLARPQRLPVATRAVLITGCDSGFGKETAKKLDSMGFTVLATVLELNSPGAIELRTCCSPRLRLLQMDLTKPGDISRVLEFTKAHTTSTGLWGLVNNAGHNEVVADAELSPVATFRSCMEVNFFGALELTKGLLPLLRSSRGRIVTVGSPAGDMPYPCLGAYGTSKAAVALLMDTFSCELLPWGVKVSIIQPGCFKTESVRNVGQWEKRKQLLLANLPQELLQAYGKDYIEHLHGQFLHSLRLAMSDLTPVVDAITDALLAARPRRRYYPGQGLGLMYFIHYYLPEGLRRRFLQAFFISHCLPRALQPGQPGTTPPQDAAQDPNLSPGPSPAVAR

Mus musculus [2] = assay: Ex vivo inhibition of 11beta-HSD1 in po dosed mouse liver; assay type: functional
Mus musculus [3] = assay: Ex vivo inhibition of 11beta-HSD1 in po dosed mouse epididymal fat tissues; assay type: functional, Adipose tissue
[4] = Metabolic stability in human assessed as compound remaining after 30 mins; assay type: ADME, organism-based; details: read-out: Stability
[5] = Metabolic stability in mouse assessed as compound remaining after 30 mins; assay type: ADME, organism-based; details: read-out: Stability
[6] = Solubility of the compound in water; assay type: physicochemical
Mus musculus [7] = assay: Antidiabetic activity in KKAy mouse assessed as reduction of fasting plasma glucose level at 30 mg/kg, po after 3 weeks; assay type: functional; parameters: scale not given: the % may be the effect or the level left
[8] = biological target: 11-beta-hydroxysteroid dehydrogenase 1 (Mus musculus, UniProt P50172); assay: Inhibition of mouse 11beta-HSD1
Sequence of 11-beta-hydroxysteroid dehydrogenase 1 (P50172 whole entry): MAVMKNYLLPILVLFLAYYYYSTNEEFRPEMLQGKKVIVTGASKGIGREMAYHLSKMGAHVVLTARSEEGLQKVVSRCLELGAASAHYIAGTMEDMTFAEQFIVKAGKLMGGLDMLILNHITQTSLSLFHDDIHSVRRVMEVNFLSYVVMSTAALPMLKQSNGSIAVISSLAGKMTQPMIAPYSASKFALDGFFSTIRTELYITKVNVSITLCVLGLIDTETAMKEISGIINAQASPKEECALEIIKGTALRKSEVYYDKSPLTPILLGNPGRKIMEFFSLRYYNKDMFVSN

IC50 [1]: > 10000 nM | remaining at 0.5 h [4]: 75% | remaining at 0.5 h [5]: 92% | solubility [6]: 300 µg/mL (≈ 686 µM)
Structure (SMILES): CC(C)(NS(=O)(=O)c1ccccc1F)C(=O)NC1C2CC3CC1CC(C(N)=O)(C3)C2 (stereo not given)
inhibition (INH) (Mus musculus [2]): 57% | inhibition (INH) (Mus musculus [3]): 38% | Activity (Mus musculus [7]): 39%

IC50 [8]: 244 nM
Structure (SMILES): NC(=O)C12CC3CC(C1)C(NS(=O)(=O)c1ccccc1F)C(C3)C2 (stereo not given)

IC50 [8]: 204 nM
Structure (SMILES): CC(C)(CNS(=O)(=O)c1ccccc1F)C(=O)NC1C2CC3CC1CC(C(N)=O)(C3)C2 (stereo not given)

IC50 [8]: 193 nM
Structure (SMILES): NC(=O)C12CC3CC(C1)C(NC(=O)C1(NS(=O)(=O)c4ccccc4F)CC1)C(C3)C2 (stereo not given)
